For the assay, the target named is T1, GLP-1 Receptor (GLP1R) (Homo sapiens, UniProt P43220).
T1 construct: host or cells: HEK293/GLP1R/CRE-LUC
Nature of the assay: GLP-1R agonist cAMP stimulation assay (Method 3). It is filed as cell-based. As to conditions: HEK293/GLP1R/CRE-LUC cells (HDB), Method 3, 30 min incubation. On the procedure:
Method 3: Activation of GLP-1 receptor is known to stimulate cyclic AMP (cAMP) production in cells which indicates primary coupling to the Gαs subunit of the G protein heterotrimeric complex.
To optimize functional activity directed toward Gαs coupling, a HEK293/CRE-Luc cell line developed by HDB stably expressing the GLP-1 Receptor was used, 200× concentration of compound working solutions were prepared (Agilent Technologies Bravo) with 1/2 log serial dilution in 384-well Echo LDV plate (Labcyte, Cat #LP-0200). 50 nL/well 200× concentration of compound working solutions were moved to 384-well white low volume plate (Greiner, Cat #784075) using Labcyte ECHO550. 1×10^5 cells/mL HEK293/GLP1R/CRE-LUC(HD Biosciences) cell suspensions prepared with assay buffer [DPBS containing 0.5 mM IBMX (Sigma, Cat #15879) and 0.1% BSA (GENVIEW, Cat #FA016-100 g)], 10 μL cell suspensions were added to each well of previous generated assay plate which already contains 50 nL compound at 200× concentration using ThermoFisher Multidrop Combi (1000 cells/well). Seal the plate and incubate at 37° C. with 5% CO2 for 30 min.
After incubation the cAMP assay signal was generated using cAMP dynamic 2 Kit (Cisbio). 5 μL cAMP-d2 working solution was added to each well, followed with 5 μL Anti-cAMP antibody-cryptate working solution added to each well using ThermoFisher Multidrop Combi. Incubate at room temperature for 1 hour protected from light. Read the fluorescence at 665 nm and 615 nm with Reader PerkinElmer EnVision.

Where [1] appears, read: read-out: GLP1R cAMP Stimulation DR: EC50 (nM) [Species: Human, Assay Cell Line: HDB].
Setting [2] is: read-out: GLP1R cAMP Stimulation DR: pEC50 (M) [Species: Human, Assay Cell Line: HDB] (converted).

Read-outs that look alike come from different tables or passages of the source.

T1 sequence (P43220 24-463): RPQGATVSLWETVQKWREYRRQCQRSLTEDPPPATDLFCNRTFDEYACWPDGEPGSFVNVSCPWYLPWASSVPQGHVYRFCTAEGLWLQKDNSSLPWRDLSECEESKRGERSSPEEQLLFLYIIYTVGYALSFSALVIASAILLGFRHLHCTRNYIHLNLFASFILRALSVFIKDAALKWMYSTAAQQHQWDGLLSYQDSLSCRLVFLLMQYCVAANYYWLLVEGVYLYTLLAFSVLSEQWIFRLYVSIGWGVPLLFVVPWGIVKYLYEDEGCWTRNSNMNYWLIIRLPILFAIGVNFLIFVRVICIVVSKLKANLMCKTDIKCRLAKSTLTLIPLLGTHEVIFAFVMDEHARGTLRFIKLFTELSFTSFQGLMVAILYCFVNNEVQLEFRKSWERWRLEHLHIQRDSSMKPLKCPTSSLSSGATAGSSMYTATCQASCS

With `CCP(=O)(CC)c1ccc(-n2ccn(-c3c4c(nn3-c3cc(C)c(F)c(C)c3)CCN(C(=O)c3cc5cc(N6CCOC(C)(C)C6)ccc5n3[C@@]3(c5noc(=O)[nH]5)C[C@@H]3C)[C@H]4C)c2=O)cc1NC` [Compound 150a, 3-((1S,2S)-1-(2-((S)-3-(3-(4-(diethylphosphoryl)-3-(methylamino)phenyl)-2-oxo-2,3-dihydro-1H-imidazol-1-yl)-2-(4-fluoro-3,5-dimethylphenyl)-4-methyl-4,5,6,7-tetrahydro-2H-pyrazolo[4,3-c]pyridine-5-carbonyl)-5-(2,2-dimethylmorpholino)-1H-indol-1-yl)-2-methylcyclopropyl)-1,2,4-oxadiazol-5(4H)-one], the EC50 was 0.1 to 0.2 nM under setting [1] and 0.1 to 1 nM under setting [2].

`Cc1cc(-n2nc3c(c2-n2ccn(-c4ccc(P(C)(C)=O)c(N5CCOCC5)c4)c2=O)[C@H](C)N(C(=O)c2cc4cc(C5CCOCC5)ccc4n2[C@@]2(c4noc(=O)[nH]4)C[C@@H]2C)CC3)cc(C)c1F` [Compound 125a, 3-((1S,2S)-1-(2-((S)-3-(3-(4-(dimethylphosphoryl)-3-morpholinophenyl)-2-oxo-2,3-dihydro-1H-imidazol-1-yl)-2-(4-fluoro-3,5-dimethylphenyl)-4-methyl-4,5,6,7-tetrahydro-2H-pyrazolo[4,3-c]pyridine-5-carbonyl)-5-(tetrahydro-2H-pyran-4-yl)-1H-indol-1-yl)-2-methylcyclopropyl)-1,2,4-oxadiazol-5(4H)-one]: the EC50 was 0.2 to 0.5 nM under setting [1] and 0.1 to 1 nM under setting [2].

Take `CCP(=O)(CC)c1ccc(-n2ccn(-c3c4c(nn3-c3cc(C)c(F)c(C)c3)CCN(C(=O)c3cc5cc(C6CCOCC6)ccc5n3C3(c5noc(=O)[nH]5)CC3)[C@H]4C)c2=O)cc1NC` [Compound 135a, (S)-3-(1-(2-(3-(3-(4-(diethylphosphoryl)-3-(methylamino)phenyl)-2-oxo-2,3-dihydro-1H-imidazol-1-yl)-2-(4-fluoro-3,5-dimethylphenyl)-4-methyl-4,5,6,7-tetrahydro-2H-pyrazolo[4,3-c]pyridine-5-carbonyl)-5-(tetrahydro-2H-pyran-4-yl)-1H-indol-1-yl)cyclopropyl)-1,2,4-oxadiazol-5(4H)-one]: the EC50 runs as follows: under setting [1], less than 0.1 nM; under setting [2], no more than 0.1 nM.

For the molecule `CNc1cc(-n2ccn(-c3c4c(nn3-c3cc(C)c(F)c(C)c3)CCN(C(=O)c3cc5cc(C6CCOCC6)ccc5n3[C@@]3(c5noc(=O)[nH]5)C[C@@H]3C)[C@H]4C)c2=O)ccc1P(=O)(C(C)C)C(C)C` [Compound 141a, 3-((1S,2S)-1-(2-((S)-3-(3-(4-(diisopropylphosphoryl)-3-(methylamino)phenyl)-2-oxo-2,3-dihydro-1H-imidazol-1-yl)-2-(4-fluoro-3,5-dimethylphenyl)-4-methyl-4,5,6,7-tetrahydro-2H-pyrazolo[4,3-c]pyridine-5-carbonyl)-5-(tetrahydro-2H-pyran-4-yl)-1H-indol-1-yl)-2-methylcyclopropyl)-1,2,4-oxadiazol-5(4H)-one], the EC50 is less than 0.1 nM under setting [1] and no more than 0.1 nM under setting [2].

With `CNc1cc(-n2ccn(-c3c4c(nn3-c3cc(C)c(F)c(C)c3)CCN(C(=O)c3cc5cc(C6CCOCC6)ccc5n3[C@@]3(c5noc(=O)[nH]5)C[C@@H]3C)[C@H]4C)c2=O)ccc1P(C)(C)=O` [Compound 106a, 3-((1S,2S)-1-(2-((S)-3-(3-(4-(dimethylphosphoryl)-3-(methylamino)phenyl)-2-oxo-2,3-dihydro-1H-imidazol-1-yl)-2-(4-fluoro-3,5-dimethylphenyl)-4-methyl-4,5,6,7-tetrahydro-2H-pyrazolo[4,3-c]pyridine-5-carbonyl)-5-(tetrahydro-2H-pyran-4-yl)-1H-indol-1-yl)-2-methylcyclopropyl)-1,2,4-oxadiazol-5(4H)-one], the EC50 by setting is: under setting [1], less than 0.1 nM; under setting [2], no more than 0.1 nM.

`Cc1cc(-n2nc3c(c2-n2ccn(-c4cccc(P(C)(C)=O)c4O)c2=O)[C@H](C)N(C(=O)c2cc4cc(C5CCOCC5)ccc4n2[C@@]2(c4noc(=O)[nH]4)C[C@@H]2C)CC3)cc(C)c1F` [Compound 107a, 3-((1S,2S)-1-(2-((S)-3-(3-(3-(dimethylphosphoryl)-2-hydroxyphenyl)-2-oxo-2,3-dihydro-1H-imidazol-1-yl)-2-(4-fluoro-3,5-dimethylphenyl)-4-methyl-4,5,6,7-tetrahydro-2H-pyrazolo[4,3-c]pyridine-5-carbonyl)-5-(tetrahydro-2H-pyran-4-yl)-1H-indol-1-yl)-2-methylcyclopropyl)-1,2,4-oxadiazol-5(4H)-one]: the EC50 under setting [1] lay in the range of 0.2 to 0.5 nM and the EC50 under setting [2] is 0.1 to 1 nM.

As for `CCP(=O)(CC)c1ncc(-n2ccn(-c3c4c(nn3-c3cc(C)c(F)c(C)c3)CCN(C(=O)c3cc5cc(C6CCOCC6)ccc5n3[C@@]3(c5noc(=O)[nH]5)C[C@@H]3C)[C@H]4C)c2=O)cc1NC` [Compound 139a, 3-((1S,2S)-1-(2-((S)-3-(3-(6-(diethylphosphoryl)-5-(methylamino)pyridin-3-yl)-2-oxo-2,3-dihydro-1H-imidazol-1-yl)-2-(4-fluoro-3,5-dimethylphenyl)-4-methyl-4,5,6,7-tetrahydro-2H-pyrazolo[4,3-c]pyridine-5-carbonyl)-5-(tetrahydro-2H-pyran-4-yl)-1H-indol-1-yl)-2-methylcyclopropyl)-1,2,4-oxadiazol-5(4H)-one], the EC50 reads like this: under setting [1], less than 0.1 nM; under setting [2], no more than 0.1 nM.

Take `CCP(=O)(CC)c1ccc(-n2ccn(-c3c4c(nn3-c3cc(C)c(F)c(C)c3)CCN(C(=O)c3cc5cc(C6CCOCC6)ccc5n3[C@@]3(c5noc(=O)[nH]5)C[C@@H]3C)[C@H]4C)c2=O)cc1N1CCOCC1` [Compound 114a, 3-((1S,2S)-1-(2-((S)-3-(3-(4-(diethylphosphoryl)-3-morpholinophenyl)-2-oxo-2,3-dihydro-1H-imidazol-1-yl)-2-(4-fluoro-3,5-dimethylphenyl)-4-methyl-4,5,6,7-tetrahydro-2H-pyrazolo[4,3-c]pyridine-5-carbonyl)-5-(tetrahydro-2H-pyran-4-yl)-1H-indol-1-yl)-2-methylcyclopropyl)-1,2,4-oxadiazol-5(4H)-one]: the EC50 reads like this: under setting [1], 0.2 to 0.5 nM; under setting [2], 0.1 to 1 nM.

With `Cc1cc(-n2nc3c(c2-n2ccn(-c4ccc(P(C)(C)=O)cc4F)c2=O)[C@H](C)N(C(=O)c2cc4cc(C5CCOCC5)ccc4n2[C@@]2(c4noc(=O)[nH]4)C[C@@H]2C)CC3)cc(C)c1F` [Compound 122a, 3-((1S,2S)-1-(2-((S)-3-(3-(4-(dimethylphosphoryl)-2-fluorophenyl)-2-oxo-2,3-dihydro-1H-imidazol-1-yl)-2-(4-fluoro-3,5-dimethylphenyl)-4-methyl-4,5,6,7-tetrahydro-2H-pyrazolo[4,3-c]pyridine-5-carbonyl)-5-(tetrahydro-2H-pyran-4-yl)-1H-indol-1-yl)-2-methylcyclopropyl)-1,2,4-oxadiazol-5(4H)-one], the EC50 under setting [1] is less than 0.1 nM and the EC50 under setting [2] was no more than 0.1 nM.

Turning to `CCP(=O)(CC)c1ccc(-n2ccn(-c3c4c(nn3-c3cc(C)c(F)c(C)c3)CCN(C(=O)c3cc5cc(C6CCOCC6)ccc5n3[C@@]3(c5noc(=O)[nH]5)C[C@@H]3C)[C@H]4C)c2=O)c(F)c1NC` [Compound 145a, 3-((1S,2S)-1-(2-((S)-3-(3-(4-(diethylphosphoryl)-2-fluoro-3-(methylamino)phenyl)-2-oxo-2,3-dihydro-1H-imidazol-1-yl)-2-(4-fluoro-3,5-dimethylphenyl)-4-methyl-4,5,6,7-tetrahydro-2H-pyrazolo[4,3-c]pyridine-5-carbonyl)-5-(tetrahydro-2H-pyran-4-yl)-1H-indol-1-yl)-2-methylcyclopropyl)-1,2,4-oxadiazol-5(4H)-one], the EC50 under setting [1] was less than 0.1 nM and the EC50 under setting [2] was no more than 0.1 nM.

On to `CCP(=O)(CC)c1c(C)cc(-n2ccn(-c3c4c(nn3-c3cc(C)c(F)c(C)c3)CCN(C(=O)c3cc5cc(C6CCOCC6)ccc5n3[C@@]3(c5noc(=O)[nH]5)C[C@@H]3C)[C@H]4C)c2=O)cc1NC` [Compound 140a, 3-((1S,2S)-1-(2-((S)-3-(3-(4-(diethylphosphoryl)-3-methyl-5-(methylamino)phenyl)-2-oxo-2,3-dihydro-1H-imidazol-1-yl)-2-(4-fluoro-3,5-dimethylphenyl)-4-methyl-4,5,6,7-tetrahydro-2H-pyrazolo[4,3-c]pyridine-5-carbonyl)-5-(tetrahydro-2H-pyran-4-yl)-1H-indol-1-yl)-2-methylcyclopropyl)-1,2,4-oxadiazol-5(4H)-one], for which the EC50 under setting [1] is 0.5 to 5 nM and the EC50 under setting [2] was 0.1 to 1 nM.
